What was measured:
[1] = system: Trypanosoma brucei brucei trypomastigotes, suramin-sensitive strain (Squib 427); experiment: T. b. brucei growth/viability assay (resazurin); type: cell-based; conditions: Trypanosoma brucei, 72 h, 3 days
Procedure: After 3 days, parasite growth was assessed fluorimetrically following the addition of resazurin. After 24 h at 37 °C, fluorescence was measured (λex = 550 nm, λem = 590 nm). The results were expressed as a percentage reduction in parasite growth/viability compared to control wells, and a 50% inhibitory concentration (IC50) was calculated.

[2] = system: Trypanosoma cruzi (Tulahuen CL2 β-galactosidase) amastigotes in hMRC-5SV2 cells; experiment: T. cruzi intracellular amastigote assay (β-galactosidase/CPRG); type: cell-based; conditions: Trypanosoma cruzi, TULAHUEN, 168 h, intracellular amastigotes, 7 days; read-out: IC50 T. cruzi intramacrophage amastigotes (converted)
Procedure, shortened: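 Infected hMRC-5SV2 fibroblasts exposed 7 days to compound at 64, 16, 4, 1 and 0.25 μM. Parasite burden read as β-galactosidase cleavage of CPRG at 540 nm after 4 h at 37 °C. Percent growth reduction versus control wells, IC50 calculated.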

[3] = system: L. infantum (MHOM/MA(BE)/67) amastigotes in primary peritoneal mouse macrophages; experiment: L. infantum intramacrophage amastigote assay (microscopic burden); type: cell-based, Leishmania infantum; conditions: Leishmania infantum, Macrophage, 120 h, 5 days, mouse macrophages as host
Procedure, shortened: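 Amastigotes in primary peritoneal mouse macrophages were exposed 5 days to 64, 16, 4, 1 and 0.25 μM compound. Amastigotes per macrophage counted microscopically; percent burden reduction versus untreated wells gave IC50.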

in vitro = conditions: human, CC50 hMRC-5 (cytotoxicity)

C=CCOc1ccc(OC)cc1/C=C/C(=O)/C=C/c1cc(OC)ccc1OCC=C [1n]
IC50 [1]: 26.6 µM | IC50 [2]: 24.2 µM | IC50 [3]: > 64 µM | CC50 at 3 days (in vitro): > 16 µM | melting point: 83 °C
